Values quoted from earlier work as cited in US8835508B2, “Stable aqueous solution containing sodium pyruvate, and the preparation and use thereof” (priority 2006, dated 2014).
Where two headings read alike, the source gives them in different places.

Settings: for content of dimer: 3.0 M (3,000 mM) pure NaPyr in water, room temperature

CC(=O)C(=O)[O-].[Na+] [NaPyr, sodium pyruvate]
content of dimer (pH 7.3, after 24 hours): 9.1%
content of dimer (pH 7.3, after 48 hours): 18.4%
stability of aqueous solution containing NaPyr (22° C., pH >6.0, HPLC and NMR): unstable
